{"source": "paper PMC5035006", "about": "“Binding and Inhibition of Spermidine Synthase from Plasmodium falciparum and Implications for In Vitro Inhibitor Testing” (PLoS ONE, 2016)", "key": {"PfSpdS [1]": {"molecular_target": "T1, PfSpdS (Plasmodium falciparum, UniProt Q8II73)", "T1 sequence (Q8II73 entry or part of it)": "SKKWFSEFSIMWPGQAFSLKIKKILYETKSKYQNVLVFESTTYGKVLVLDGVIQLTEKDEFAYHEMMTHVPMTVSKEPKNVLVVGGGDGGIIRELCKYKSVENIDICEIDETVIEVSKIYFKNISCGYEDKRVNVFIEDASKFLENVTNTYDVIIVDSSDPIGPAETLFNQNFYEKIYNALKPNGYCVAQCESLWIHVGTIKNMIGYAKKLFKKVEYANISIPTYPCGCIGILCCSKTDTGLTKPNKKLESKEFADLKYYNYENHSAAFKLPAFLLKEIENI", "assay": "biochemical", "type": "binding", "description": "Protein samples of 1 mg/ml were dialyzed overnight at 4°C against buffer containing 100 mM HEPES, pH 7.5, 250 mM NaCl. Protein concentration was determined by UV absorption (A280 = 1 for 1.3 mg/mL) immediately before loading into the calorimeter cell. […] The protein at a concentration of 0.8–30 μM was loaded into the sample cell of a VP-ITC microcalorimeter (MicroCal, Inc.). All measurements were performed at 25°C with 25 injections of the ligand of 10 μl each delivered in 20 s with 240 s delays between injections. […] Titrations of ligands into dialysis buffer were performed additionally and in case of non-negligible dilution heat the dilution profile(s) were subtracted point-by-point from the reaction profile. The dilution factor was taken into account for the binding curve fitting. Prior to titration of a second ligand into protein in presence of a first ligand, titration of dcAdoMet or MTA was carried out to saturating concentrations. […] The ligand- and buffer-subtracted integrated binding data were fitted using a single-site binding model in MicroCal Origin software.\nThe solution conditions for which the reported parameter values apply are 100 mM HEPES pH 7.5, 250 mM NaCl, 25°C."}, "PfSpdS [2]": {"molecular_target": "T1, PfSpdS", "details": "cited from earlier work"}, "mammalian SpdS": {"tested_on": "mammalian SpdS", "details": "cited from earlier work"}, "PfSpdS [3]": {"molecular_target": "T1, PfSpdS", "assay": "biochemical", "details": "for inhibitory effects on PfSpdS activity: at concentrations of 0.1 or 1 mM, data not shown", "description": "The enzyme assays were incubated for 30 min at 37°C and terminated by addition of 100 μl of 0.4 M HClO4. The amount of spermidine formed was determined by HPLC with θ-phthaldialdehyde as the reagent essentially as described by Seiler & Knödgen.\nDetermination of IC50 values was performed in standard assays containing increasing concentrations of inhibitors."}, "PfSpdS [4]": {"molecular_target": "T1, PfSpdS", "parameters": "method as in PMID 18410081", "details": "cited from earlier work"}, "human SpdS": {"molecular_target": "human SpdS", "parameters": "method as in PMID 21898642", "details": "20 mM sodium phosphate pH 7.5, 50 mM NaCl, 25°C; cited from earlier work"}, "P. falciparum": {"tested_on": "P. falciparum", "parameters": "method as in PMID 15913804", "details": "at micromolar concentrations; cited from earlier work"}, "[5]": {"details": "free PfSpdS, 100 mM HEPES pH 7.5, 250 mM NaCl, 25°C"}, "[6]": {"details": "free PfSpdS, 100 mM HEPES pH 7.5, 250 mM NaCl, 25°C, read-out: KD"}, "[7]": {"details": "KD, PfSpdS saturated with MTA (ligand 1), values for ligand 2"}, "[8]": {"details": "KD, free PfSpdS, 100 mM HEPES pH 7.5, 250 mM NaCl, 25°C"}, "[9]": {"details": "PfSpdS saturated with MTA (ligand 1), values for ligand 2"}, "[10]": {"details": "PfSpdS saturated with MTA (ligand 1), values for ligand 2, read-out: KD"}, "[11]": {"details": "free PfSpdS, listed as with footnote mark a"}, "[12]": {"details": "free PfSpdS, listed as with footnote mark b: fit was done setting N = 1"}}, "note": "Several values for one entry are separate records, joined by “and”; a condition that tells them apart may be missing. Equal values may be shown once. Read-outs that look alike come from different tables or passages of the source."}
{"compound": "5′-methylthioadenosine [MTA]", "values": [{"measurement": "ΔH", "setting": "PfSpdS [1]; [5]", "value": "-2.7 ± 0.3", "unit": "kcal/mol"}, {"measurement": "ΔS", "setting": "PfSpdS [1]; [5]", "value": 18.6, "unit": "cal/mol/deg"}, {"measurement": "Kd", "setting": "PfSpdS [1]; [6]", "value": "0.9 ± 0.5", "unit": "µM"}, {"measurement": "IC50", "setting": "PfSpdS [2]; 100 μM dcAdoMet, 200 μM putrescine", "value": "160 µM and 159 µM"}, {"measurement": "Inhibition type", "setting": "PfSpdS [2]", "value": "product inhibition"}]}
{"compound": "Cc1ccc(N)cc1", "note": "[4MAN, 4-methylaniline]", "values": [{"measurement": "affinity for free PfSpdS (in words)", "setting": "PfSpdS [1]", "value": "no measurable affinity"}, {"measurement": "Kd", "setting": "PfSpdS [1]; [7]", "value": "> 300", "unit": "µM"}, {"measurement": "Kd", "setting": "PfSpdS [1]; KD, PfSpdS saturated with dcAdoMet (ligand 1), values for ligand 2", "value": "7.7 ± 1.2", "unit": "µM"}, {"measurement": "Kd", "setting": "PfSpdS [1]; [8]", "value": "> 300", "unit": "µM"}, {"measurement": "affinity to PfSpdS in presence of MTA (in words)", "setting": "PfSpdS [1]; PfSpdS saturated with MTA, detection limit KD ~ 300 μM", "value": "no detectable affinity"}, {"measurement": "IC50", "setting": "mammalian SpdS", "value": 108, "unit": "µM"}, {"measurement": "IC50", "setting": "PfSpdS [3]", "value": 23, "unit": "µM"}, {"measurement": "Ki", "setting": "PfSpdS [3]", "value": 8.2, "unit": "µM"}, {"measurement": "Inhibition type", "setting": "PfSpdS [3]; Lineweaver-Burke plots, 0.1 mM dcAdoMet", "value": "competitive with putrescine"}]}
{"compound": "C[S+](CCCN)CC1OC(n2cnc3c(N)ncnc32)C(O)C1O", "note": "(stereo not drawn) [dcAdoMet, decarboxylated S-adenosylmethionine]", "values": [{"measurement": "Kd", "setting": "PfSpdS [1]; [8]", "value": "3.7 ± 0.7", "unit": "µM"}, {"measurement": "ΔH", "setting": "PfSpdS [1]; [5]", "value": "-2.4 ± 0.2", "unit": "kcal/mol"}, {"measurement": "ΔS", "setting": "PfSpdS [1]; [5]", "value": 16.7, "unit": "cal/mol/deg"}]}
{"compound": "NCCCCN", "note": "[Putrescine, putrescine]", "values": [{"measurement": "Kd", "setting": "PfSpdS [1]; [7]", "value": "59.5 ± 8.2", "unit": "µM"}, {"measurement": "Kd", "setting": "PfSpdS [1]; [8]", "value": "> 300", "unit": "µM"}, {"measurement": "ΔH", "setting": "PfSpdS [1]; [9]", "value": "-12.4 ± 0.9", "unit": "kcal/mol"}, {"measurement": "ΔS", "setting": "PfSpdS [1]; [9]", "value": -22.4, "unit": "cal/mol/deg"}, {"measurement": "affinity for free PfSpdS (in words)", "setting": "PfSpdS [1]; free PfSpdS, detection limit KD ~ 300 μM", "value": "no measurable affinity"}, {"measurement": "Km", "setting": "PfSpdS [2]; read-out: Km for putrescine, 29-residue-truncated PfSpdS", "value": 52, "unit": "µM"}]}
{"compound": "NCCCCCc1nc2ccccc2[nH]1", "note": "[BIPA, 5-(1H-benzimidazol-2-yl)pentan-1-amine]", "values": [{"measurement": "binding to the enzyme by NMR spectroscopy (in words)", "setting": "PfSpdS [4]", "value": "bind strongly"}, {"measurement": "ΔH", "setting": "PfSpdS [1]; [5]", "value": "1.5 ± 0.3", "unit": "kcal/mol"}, {"measurement": "ΔS", "setting": "PfSpdS [1]; [5]", "value": 27.1, "unit": "cal/mol/deg"}, {"measurement": "Kd", "setting": "PfSpdS [1]; [6]", "value": "15.2 ± 8.2", "unit": "µM"}, {"measurement": "IC50", "setting": "PfSpdS [3]; PfSpdS assays, L. Persson, unpublished results, read-out: IC50", "value": "> 100", "unit": "µM"}, {"measurement": "inhibitory effects on PfSpdS activity", "setting": "PfSpdS [3]", "value": "no or only minor inhibitory effects"}, {"measurement": "IC50", "setting": "PfSpdS [3]; read-out: IC50", "value": "> 1000", "unit": "µM"}]}
{"compound": "NCCCSC[C@H]1O[C@@H](n2cnc3c(N)ncnc32)[C@H](O)[C@@H]1O", "note": "[decarboxylated S-adenosylhomocysteine]", "values": [{"measurement": "Kd", "setting": "human SpdS", "value": 1.1, "unit": "µM"}]}
{"compound": "NCCCCCC(CCN)SCC1OC(n2cnc3c(N)ncnc32)C(O)C1O", "note": "(stereo not drawn) [AdoDATO, S-adenosyl-3-thio-1,8-diaminooctane]", "values": [{"measurement": "ΔH", "setting": "PfSpdS [1]; [5]", "value": "-5.5 ± 0.2", "unit": "kcal/mol"}, {"measurement": "ΔS", "setting": "PfSpdS [1]; [5]", "value": 6.9, "unit": "cal/mol/deg"}, {"measurement": "Kd", "setting": "PfSpdS [1]; [6]", "value": "2.8 ± 0.5", "unit": "µM"}, {"measurement": "Inhibition type", "setting": "PfSpdS [3]", "value": "mixed-type inhibition with putrescine"}, {"measurement": "Ki uncompetitive", "setting": "PfSpdS [3]", "value": 12.2, "unit": "µM"}, {"measurement": "Ki", "setting": "PfSpdS [3]; read-out: Ki competitive", "value": 3.4, "unit": "µM"}, {"measurement": "IC50", "setting": "PfSpdS [3]; read-out: predicted IC50 from Eq (2)", "value": 10, "unit": "µM"}]}
{"compound": "C[C@H]1CC[C@H](N)CC1", "note": "[4MCHA, trans-4-methylcyclohexylamine]", "values": [{"measurement": "inhibition of P. falciparum cell growth in vitro (in words)", "setting": "P. falciparum", "value": "strongly inhibit"}, {"measurement": "Inhibition type", "setting": "PfSpdS [2]", "value": "competitive inhibitor with respect to putrescine"}, {"measurement": "Ki", "setting": "PfSpdS [2]", "value": 0.18, "unit": "µM"}]}
{"compound": "NCCCN[C@H]1CC[C@H](N)CC1", "note": "[NACD]", "values": [{"measurement": "ΔH", "setting": "PfSpdS [1]; [9]", "value": "-0.6 ± 0.1", "unit": "kcal/mol"}, {"measurement": "ΔS", "setting": "PfSpdS [1]; [9]", "value": 28.4, "unit": "cal/mol/deg"}, {"measurement": "Kd", "setting": "PfSpdS [1]; [10]", "value": "~0.3 µM and 0.3 µM"}, {"measurement": "ΔH", "setting": "PfSpdS [1]; [11]", "value": "51.8 ± 2.5", "unit": "kcal/mol"}, {"measurement": "ΔS", "setting": "PfSpdS [1]; [11]", "value": 196, "unit": "cal/mol/deg"}, {"measurement": "Kd", "setting": "PfSpdS [1]; free PfSpdS, listed as with footnote mark a, read-out: KD", "value": "8.4 ± 0.7", "unit": "µM"}, {"measurement": "ΔH", "setting": "PfSpdS [1]; [12]", "value": "17.6 ± 9.0", "unit": "kcal/mol"}, {"measurement": "ΔS", "setting": "PfSpdS [1]; [12]", "value": 82.8, "unit": "cal/mol/deg"}, {"measurement": "Kd", "setting": "PfSpdS [1]; free PfSpdS, listed as with footnote mark b: fit was done setting N = 1, read-out: KD", "value": "6.1 ± 1.6", "unit": "µM"}]}
{"compound": "NCc1ccc(N)cc1", "note": "[4AMA, 4-aminomethylaniline]", "values": [{"measurement": "affinity for free PfSpdS (in words)", "setting": "PfSpdS [1]", "value": "no measurable affinity"}, {"measurement": "ΔH", "setting": "PfSpdS [1]; [9]", "value": "-3.5 ± 0.2", "unit": "kcal/mol"}, {"measurement": "ΔS", "setting": "PfSpdS [1]; [9]", "value": 7.84, "unit": "cal/mol/deg"}, {"measurement": "Kd", "setting": "PfSpdS [1]; [10]", "value": "45.3 ± 5.1", "unit": "µM"}, {"measurement": "Kd", "setting": "PfSpdS [1]; PfSpdS saturated with dcAdoMet (ligand 1), values for ligand 2, read-out: KD", "value": "> 300", "unit": "µM"}, {"measurement": "Kd", "setting": "PfSpdS [1]; [6]", "value": "> 300", "unit": "µM"}, {"measurement": "inhibitory effects on PfSpdS activity", "setting": "PfSpdS [3]", "value": "no or only minor inhibitory effects"}, {"measurement": "IC50", "setting": "PfSpdS [3]; read-out: IC50", "value": "> 1000", "unit": "µM"}]}
{"compound": "NCCCCNCCCN", "note": "[Spermidine, spermidine]", "values": [{"measurement": "affinity for free PfSpdS (in words)", "setting": "PfSpdS [1]", "value": "no measurable affinity"}, {"measurement": "Kd", "setting": "PfSpdS [1]; [7]", "value": "1.2 ± 0.3", "unit": "µM"}, {"measurement": "Kd", "setting": "PfSpdS [1]; [8]", "value": "> 300", "unit": "µM"}, {"measurement": "ΔH", "setting": "PfSpdS [1]; [9]", "value": "-6.1 ± 0.3", "unit": "kcal/mol"}, {"measurement": "ΔS", "setting": "PfSpdS [1]; [9]", "value": 6.74, "unit": "cal/mol/deg"}]}
